Reference: patent US11077090B2, “Compounds and compositions and uses thereof” (Sunovion Pharmaceuticals Inc., priority 2016, dated 2021)
Like-named read-outs stand apart in the source and are kept apart here.

System: compound-treated mice
Test: Neuropharmacological assay (SmartCube): behavioral activity signature and minimal effective dose
Assay type: in vivo
Details: for minimal effective dose: Mus musculus, ip; for AD: ADHD (probability of activity signature) / AG: analgesic (probability of activity signature) / AX: anxiolytic (probability of activity signature) / CE: cognitive enhancer (probability of activity signature) / DP: anti-depressant (probability of activity signature) / MS: mood stabilizer (probability of activity signature) / PS: anti-psychotic (probability of activity signature) / SD: sedative hypnotic (probability of activity signature) / UN: uncharacterized CNS activity (probability of activity signature): i.p. 15 min before test, most efficacious dose(s)
In short: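 Video-recorded behavior is compared algorithmically against a reference-compound database, yielding class probabilities (best dose reported). Compounds given i.p. in NMP/PEG/propylene glycol 15 min pre-test at 3 doses; potency as MED, the dose (mpk, range usually 0.3–30) reaching ≥50% total activity.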

[1] = MED = dose having 50% or more total activity, read-out: Potency: minimal effective dose (MED), binned
[2] = MED = dose having 50% or more total activity, read-out: Potency: minimal effective dose (MED)

Compound | minimal effective dose [1] [mg/kg] | AD: ADHD (probability of activity signature) | AG: analgesic (probability of activity signature) | AX: anxiolytic (probability of activity signature) | CE: cognitive enhancer (probability of activity signature) | DP: anti-depressant (probability of activity signature) | MS: mood stabilizer (probability of activity signature) | PS: anti-psychotic (probability of activity signature) | SD: sedative hypnotic (probability of activity signature) | UN: uncharacterized CNS activity (probability of activity signature) | minimal effective dose [2] [mg/kg] | Potency: minimal effective dose (MED) (MED = dose having 50% or more total activity)
COc1ccc2c(c1)CO[C@@H](C)[C@H]2N.Cl [Example 233] | > 30 | + (LOQ ≤ + <5%) | ++ (5% ≤ ++ <25%) | ++ (5% ≤ ++ <25%) | ++ (5% ≤ ++ <25%) | + (LOQ ≤ + <5%) | + (LOQ ≤ + <5%) | + (LOQ ≤ + <5%) | + (LOQ ≤ + <5%) | + (LOQ ≤ + <5%) |  | 
CC[C@H]1OCc2ccc(F)cc2[C@@H]1N.Cl [Example 202] | < 3 | + (LOQ ≤ + <5%) | ++ (5% ≤ ++ <25%) | +++ (25% ≤ +++ <50%) | ++ (5% ≤ ++ <25%) | ++ (5% ≤ ++ <25%) | + (LOQ ≤ + <5%) | ++ (5% ≤ ++ <25%) | + (LOQ ≤ + <5%) | ++++ (50% ≤ ++++) |  | 
Cc1ccc2c(c1C)[C@H](N)[C@@H](C)OC2.Cl [Example 79] |  | + (LOQ ≤ + <5%) | ++ (5% ≤ ++ <25%) | +++ (25% ≤ +++ <50%) | ++ (5% ≤ ++ <25%) | ++ (5% ≤ ++ <25%) | + (LOQ ≤ + <5%) | ++ (5% ≤ ++ <25%) | ++ (5% ≤ ++ <25%) | ++ (5% ≤ ++ <25%) | 3 to 10 | 
Cc1ccc2c(c1C)C(NCCO)COC2.Cl (centres unmarked) [Example 56] |  | + (LOQ ≤ + <5%) | +++ (25% ≤ +++ <50%) | ++ (5% ≤ ++ <25%) | ++ (5% ≤ ++ <25%) | ++ (5% ≤ ++ <25%) | + (LOQ ≤ + <5%) | + (LOQ ≤ + <5%) | + (LOQ ≤ + <5%) | + (LOQ ≤ + <5%) | 10 to 30 | 
CN[C@@H]1COCc2ccc(C)cc21 [Example 141] |  | + (LOQ ≤ + <5%) | ++ (5% ≤ ++ <25%) | +++ (25% ≤ +++ <50%) | ++ (5% ≤ ++ <25%) | ++ (5% ≤ ++ <25%) | ++ (5% ≤ ++ <25%) | ++ (5% ≤ ++ <25%) | + (LOQ ≤ + <5%) | +++ (25% ≤ +++ <50%) | 3 to 10 | 
CCN(C)C(=O)Oc1ccc2c(c1)[C@H](N)[C@H](C)OC2.Cl [Example 281] | > 30 | + (LOQ ≤ + <5%) | + (LOQ ≤ + <5%) | + (LOQ ≤ + <5%) | + (LOQ ≤ + <5%) | + (LOQ ≤ + <5%) | + (LOQ ≤ + <5%) | + (LOQ ≤ + <5%) | + (LOQ ≤ + <5%) | + (LOQ ≤ + <5%) |  | 
CNC1COCc2ccccc21.Cl (centres unmarked) [Example 54, N-Methylisochroman-4-amine hydrochloride] |  | + (LOQ ≤ + <5%) | ++ (5% ≤ ++ <25%) | ++ (5% ≤ ++ <25%) | + (LOQ ≤ + <5%) | ++ (5% ≤ ++ <25%) | + (LOQ ≤ + <5%) | ++ (5% ≤ ++ <25%) | + (LOQ ≤ + <5%) | +++ (25% ≤ +++ <50%) | 10 to 30 | 
COc1ccc2c(c1)CO[C@H](C)[C@H]2N.Cl [Example 232] | 10 to 30 | + (LOQ ≤ + <5%) | ++ (5% ≤ ++ <25%) | ++ (5% ≤ ++ <25%) | + (LOQ ≤ + <5%) | + (LOQ ≤ + <5%) | + (LOQ ≤ + <5%) | + (LOQ ≤ + <5%) | + (LOQ ≤ + <5%) | ++ (5% ≤ ++ <25%) |  | 
CC[C@H]1OCc2ccc(C)cc2[C@@H]1N (single isomer, unassigned) [Example 177] | < 3 | + (LOQ ≤ + <5%) | ++ (5% ≤ ++ <25%) | ++++ (50% ≤ ++++) | ++ (5% ≤ ++ <25%) | + (LOQ ≤ + <5%) | + (LOQ ≤ + <5%) | ++ (5% ≤ ++ <25%) | + (LOQ ≤ + <5%) | ++++ (50% ≤ ++++) |  | 
Cl.NC1COCCc2ccc3ccccc3c21 (centres unmarked) [Example 32] |  | + (LOQ ≤ + <5%) | ++ (5% ≤ ++ <25%) | ++ (5% ≤ ++ <25%) | + (LOQ ≤ + <5%) | ++ (5% ≤ ++ <25%) | + (LOQ ≤ + <5%) | ++ (5% ≤ ++ <25%) | ++ (5% ≤ ++ <25%) | + (LOQ ≤ + <5%) |  | C (>10 to ≤30 mpk)
Cl.N[C@H]1c2ccccc2CO[C@H]1CF (relative stereo) [Example 275, cis-3-(fluoromethyl)isochroman-4-amine hydrochloride] | 3 to 10 | + (LOQ ≤ + <5%) | + (LOQ ≤ + <5%) | + (LOQ ≤ + <5%) | + (LOQ ≤ + <5%) | + (LOQ ≤ + <5%) | ++ (5% ≤ ++ <25%) | + (LOQ ≤ + <5%) | +++ (25% ≤ +++ <50%) | ++ (5% ≤ ++ <25%) |  | 
